# Data published in patent US5948814A, “Genistein for the treatment of cystic fibrosis” (priority 1998, dated 1999).
# Where two headings read alike, the source gives them in different places.
# Columns and labels:
# [1] = target: T1, wt-CFTR (Homo sapiens, UniProt P13569); details: for TC1 (short mean closed time) / TC2 (long mean closed time) / TO1 (mean open time) / TO2 (long mean open time): Table 1
# Protocol: (A): continuous recordings, 4 minutes in length, of a cell-attached patch of wt-CFTR in the presence of 10 μM forskolin or 10 μM forskolin+50 μM genistein are shown. […] (B): dwell-time analysis of (A).
# A continuous recording, 12 minutes in length, of cell-attached patch is shown. wt-CFTR was activated with 50 μM forskolin prior to start of trace and was present throughout recording Genistein (50 μM) was present as indicated.
# Electrophysiology: CFTR channel currents were recorded at room temperature (~22° C.) with a patch-clamp amplifier (EPC-9, Heka Electronic), filtered at 100 Hz with a built-in three-pole Bessel filter, and stored on videotapes. Data were subsequently refiltered at 25 Hz with an eight-pole Bessel filter (Frequency Device, Havervill, Mass.) and captured onto a hard disk at a sampling rate of 50 Hz. […] Patch-clamp electrodes were made from Corning 7052 glass capillaries (Warner Instrument, Hammed, Conn.). The pipette resistance was usually 3-5 M.OMEGA., and the seal resistance was >20 G.OMEGA.. The pipette solution contained (in mM) 140 N-methyl-D-glucamine chloride (NMDG-C1), 2 MgCl2, 5Ca Cl2, and 10 HEPES (pH 7.4 with NMDG). The superfusion solution contained (in mM) 150 […], 2 MgCl2, 1 EGTA, 5 glucose, and 5 HEPES (pH 7.4 with NaOH). In excised inside-out patch experiments, the bath solution contained (in mM) 130 MNDG-Cl, 10 EGTA, 10 HEPES, 20 tetraethylammonium chloride, 8 Tris, and 2 MgCl2 (pH 7.4 with NMDG). Pipette potential was held at 50 mV relative to the bath. Downward deflections represent channel opening.
# Statistics: Mean currents and variance were estimated with Igor (Wavemetrics, Lake Oswego, Oreg.). Parameters for mean current-variance relationships and dose-response curves were obtained from least-square fitting with Sigmaplot (Jandel, San Rafael, Calif.). Po was calculated from patches containing a single channel by dividing the […]. Dwell-time analysis was described previously [Baukrowitz et al., 1994]. Calculated values are presented as means±SE. Comparisons among data were made using the Student's t-test with P<0.05 considered significant.
# To determine how genistein increases Po, the effects of genistein on single-channel kinetics were examined in cell-attached patches using dwell-time analysis. […] Both traces were recorded in the presence of 10 μM forskolin; 50 μM genistein was added prior to the start of the lower trace.
# [2] = target: T1, wt-CFTR; experiment: cell-based; format: cell-based; set-up: expressed in transfected cells
# Protocol: FIG. 1 is a graph representing the dose-responses relationship for forskolin-dependent I^- efflux. Peak rates of I^- efflux in the presence (closed symbols) or absence (open symbols) of 50 μM genistein were obtained with NIH/3T3-cystic fibrosis transmembrane conductance regulator (NIH/3T3-CFTR) (circles) and NTH/3T3-Δphenylalanine 508 (ΔF508) cells (triangles). NIH/3T3-CFTR cells are cultured at 37° C. NIH/3T3-Δ508 cells are cultured at 27° C. for 3 days prior to assay. Data are mean values±SE (n>5). Lines were fit by nonlinear least squares.
# Cell culture: NIH/3T3-CFTR, NIH/3T3-ΔF508, and NIH/3T3 mock cells (generous gifts from Dr. Richard Mulligan of Children's Hospital and Medical Center, Harvard Medical School) were grown as described [Bradbury et al., 1992] at 37° C. and 5% CO2 in Dulbecco's modified Eagle's medium-H21 supplemented with 10% new-born calf serum, 4 mM glutamine, 25 mM glucose, 100 μg/ml penicillin, 100 μg/ml streptomycin, and 50 μg/ml gentamicin. Cells were maintained in T75 flasks, passaged at 90-95% confluency, and split one to four. For measurements of I^- efflux and in vivo phosphorylation, cells were seeded onto 35-mm dishes at […]. For patch-clamp experiments, cells were grown on coverglass chips in 35-mm culture dishes. Media were replaced 24 hours after plating and thereafter every 48 hours. In all cases, media were changed on the day before I^- efflux studies, NIH/3T3-ΔF508 cells were transferred to 27° C. three days before use, and 1 day prior to study, media were supplemented with 5 mM butyrate. For patch-clamp studies, where a constant level of functional ΔF508-CFTR was not essential, NIH/3T3-ΔF508 cells were cultured at 27° C. for 2-6 days before use. Calu-3 cells were grown and maintained as described by Hunter [1995].
# I^- efflux: I^- efflux was measured as described previously [Reenstra et al., 1996]. Briefly, cells were incubated for 30 minutes with 37° C. I^- efflux buffer [(in mM) 141 NaCl, 4 KCl, 1 KH2 PO4, 0.9 MgCl2, 1.7 CaCl2. 10 N-2hydroxyethylpiperazine-N'-2-ethanesulfonic acid (HEPES), 25 glucose pH 7.4] containing 5 μCi/ml carrier-free ^125 I^- (sodium salt). Extracellular ^125 I^- was removed by washing four times with efflux buffer, and the rate of loss of intracellular ^125 I^- was determined by replacing the bathing solution with 37° C. efflux buffer every 60 seconds for 12 minutes. Time-dependent rates of ^125 I^- efflux are calculated from R=ln(^125 I^-t1 /^125 I^-t2)/(t1-t2), where ^125 I^-t is the intracellular ^125 I^- at time t and t1 and t2 are successive time points. Dose-response curves were obtained from peak rates of 125I^- efflux by nonlinear least squares fitting to R=[Ro +Rmx ·([fsk]/K1/2)]/[1+([fsk]/K1/2)], where Ro and Rmx are the rates of ^125 I efflux at zero and infinite concentration of forskolin (fsk), and K1/2 is the concentration of agonist that gives a half-maximal change.
# To investigate effects of genistein on CFTR activity, the rates of I^- efflux were measured from stably transfected NIH/3T3 cells expressing wt- and ΔF508-CFTR (NIH/33-CFTR and NIH/3T3-ΔF508 cells, respectively).
# [3] = 50 nM forskolin, single exponential fit
# [4] = 50 nM forskolin and 60 μM genistein (so in the source)
# [5] = 10 μM forskolin + 50 μM genistein
# T1 sequence (P13569 whole entry): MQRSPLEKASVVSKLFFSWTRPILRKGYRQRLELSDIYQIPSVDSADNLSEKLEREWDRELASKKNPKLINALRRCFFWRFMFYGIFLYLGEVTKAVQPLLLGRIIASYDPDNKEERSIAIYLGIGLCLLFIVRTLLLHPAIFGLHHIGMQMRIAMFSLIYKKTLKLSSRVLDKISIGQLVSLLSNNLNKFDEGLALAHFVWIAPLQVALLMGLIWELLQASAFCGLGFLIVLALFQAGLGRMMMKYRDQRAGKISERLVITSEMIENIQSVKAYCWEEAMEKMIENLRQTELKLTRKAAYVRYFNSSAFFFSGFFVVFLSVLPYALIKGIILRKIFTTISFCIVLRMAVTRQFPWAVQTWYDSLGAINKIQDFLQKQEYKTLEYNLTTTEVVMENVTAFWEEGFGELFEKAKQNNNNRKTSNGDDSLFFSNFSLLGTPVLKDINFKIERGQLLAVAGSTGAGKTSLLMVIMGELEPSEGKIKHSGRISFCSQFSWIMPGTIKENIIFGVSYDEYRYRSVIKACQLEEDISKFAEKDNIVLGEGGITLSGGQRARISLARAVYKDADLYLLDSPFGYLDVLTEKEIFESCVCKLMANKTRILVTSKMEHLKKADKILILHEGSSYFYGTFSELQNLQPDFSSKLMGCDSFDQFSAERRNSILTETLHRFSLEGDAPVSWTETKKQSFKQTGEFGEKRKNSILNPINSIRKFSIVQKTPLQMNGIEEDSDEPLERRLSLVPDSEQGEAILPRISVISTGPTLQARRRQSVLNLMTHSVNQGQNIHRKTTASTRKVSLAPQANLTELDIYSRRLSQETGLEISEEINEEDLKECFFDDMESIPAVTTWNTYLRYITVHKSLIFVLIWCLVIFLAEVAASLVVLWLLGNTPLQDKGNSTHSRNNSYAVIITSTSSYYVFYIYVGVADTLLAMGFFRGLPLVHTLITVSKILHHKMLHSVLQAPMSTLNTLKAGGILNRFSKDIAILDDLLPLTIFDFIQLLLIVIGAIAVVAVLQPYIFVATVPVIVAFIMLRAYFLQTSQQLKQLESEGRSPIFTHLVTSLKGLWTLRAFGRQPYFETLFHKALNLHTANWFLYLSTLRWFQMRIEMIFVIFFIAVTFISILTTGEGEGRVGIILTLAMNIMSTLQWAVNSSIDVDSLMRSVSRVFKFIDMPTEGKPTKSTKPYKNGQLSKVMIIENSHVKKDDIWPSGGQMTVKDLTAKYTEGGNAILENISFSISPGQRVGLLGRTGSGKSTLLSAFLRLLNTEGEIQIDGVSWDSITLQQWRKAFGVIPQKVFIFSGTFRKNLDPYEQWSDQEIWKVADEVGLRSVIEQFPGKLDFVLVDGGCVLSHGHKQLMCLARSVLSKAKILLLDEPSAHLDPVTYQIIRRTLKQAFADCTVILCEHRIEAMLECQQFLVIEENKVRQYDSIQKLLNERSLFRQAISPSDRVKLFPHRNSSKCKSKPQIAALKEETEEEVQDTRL
smiles,measurement,setting,value
C=C[C@@]1(C)CC(=O)[C@]2(O)[C@@]3(C)[C@@H](O)CCC(C)(C)[C@@H]3[C@H](O)[C@H](OC(C)=O)[C@@]2(C)O1 [forskolin],TC2,[1]; 50 nM forskolin,~ 22 seconds
same,open probability Po,[1]; 50 nM forskolin,0.07
same,mean closed time,[1]; [3],~ 22 seconds
same,mean open time,[1]; [3],~ 0.9 seconds
same,TC2,[1]; 10 μM forskolin,~ 3 seconds
same,open probability Po,"[1]; 10 μM forskolin, four channels",0.27±0.03
same,TC1 (short mean closed time),[1]; 10 μM forskolin,0.39 ± 0.11
same,TC2 (long mean closed time),[1]; 10 μM forskolin,2.98 ± 0.81
same,TO1 (mean open time),[1]; 10 μM forskolin,0.24 ± 0.01
same,TO2 (long mean open time),[1]; 10 μM forskolin,0.88 ± 0.09
same,increase of long closed time on reducing forskolin,[1]; forskolin reduced from 10 μM to 50 nM,~ 10 fold
same,EC50,[2],110 ± 30 nM
same,stimulation of normal CFTR activity,[2],stimulates normal CFTR activity very well
same,maximal fold induction at 10 µM,"[2]; mouse, read-out: maximal stimulation of I- efflux",8.2 ± 0.4
same,EC50,"[2]; read-out: K1/2 of forskolin for I- efflux in presence of genistein, with 50 μM genistein, NIH/3T3-CFTR cells",50 ± 20 nM
"O=c1c(-c2ccc(O)cc2)coc2cc(O)cc(O)c12 [Genistein, 4',5,7-trihydroxyisoflavone]",increase in Po by genistein,[1]; 50 nM forskolin,> 10 fold
same,mean closed time,[1]; [4],~ 2.5 seconds
same,mean open time,[1]; [4],~ 3.0 seconds
same,open probability Po,[1]; 50 nM forskolin plus 50 μM genistein,0.79
same,open probability Po,"[1]; 10 μM forskolin plus 50 μM genistein, four channels",0.71±0.06
same,TC1 (short mean closed time),[1]; [5],0.49 ± 0.08
same,TC2 (long mean closed time),[1]; [5],3.76 ± 1.09
same,TO1 (mean open time),[1]; [5],0.28 ± 0.11
same,TO2 (long mean open time),"[1]; 10 μM forskolin + 50 μM genistein, significant, <0.05",2.10 ± 0.30
same,effect on long closed time,"[1]; wt-CFTR, FIG. 7",dramatically decreases the long closed time
same,effect on I- efflux at high forskolin concentrations,"[2]; 50 μM genistein, high forskolin",had no effect at high forskolin concentrations
